Format in all cases: cell-based
One assay addresses T1, α1β1 GABAA receptors (Rattus norvegicus, UniProt P15431+P62813).
T1 construct: expressed in transfected cells; host or cells: Xenopus laevis oocytes, mRNA injected
Put plainly: Two electrode voltage clamp in Xenopus laevis oocytes, α1β1. The text has this: (§1) cDNA’s of rat GABAA receptor subunits α1, α4, β1, β2, β3 and γ2S were cloned as described. cDNAs of the rat subunits α2, α3 and α5 were gifts from P. Malherbe, that of α6 and γ1 were gifts of P. Seeburg and that of δ was a gift of C. Czajkowski. The mutants were constructed using the Q5 Site-Directed Mutagenesis Kit (New England Biolabs) following manufacturer’s instruction. We used the wild-type rat β3-pCI vector as template and the primers […] and […] resulting in a substitution of amino acid N41 (AAC) to R (AGG). We used the wild-type rat β1-pCI vector as template and the primers […] and […] resulting in a substitution of amino acid R41 (CGG) to N (AAC). The mutated subunits were confirmed by sequencing.
(§2) In vitro transcription of mRNA was based on the cDNA expression vectors encoding for rat GABAA receptor subunits α1–6, β1-3, γ1,2, δ and the two β mutants (β1R41N and β3N41R)[40]. After linearizing the cDNA vectors with appropriate restriction endonucleases, the cDNA was purified and concentrated with the DNA Clean and Contentrator ^TM Kit (Zymoresearch, Catalog No. D4005). Capped transcripts of the purified cDNA were produced using the mMESSAGE mMACHINE® T7 transcription kit (Ambion, TX, USA) and polyadenylated using the Ambion PolyA tailing kit (Ambion). After transcription and polyadenylation the RNA was purified with the MEGAclear ^TM Kit (Ambion, Catalog No. AM1908). The final RNA concentration was measured on NanoDrop® ND-1000 and finally diluted and stored in diethylpyrocarbonate-treated water at −80 °C. For the microinjection, the RNA of αβ receptor combinations was mixed at 1:1 ratio (which leads to αβ receptors that consist of predominantly 3 beta and 2 alpha subunits[27]), for αkβlγm (k = 1–3, l = 1, 3, m = 1, 2) receptors at 1:1:5 ratio, for αkβ3γ2 (k = 4–6) and αkβlδ (k = 1, 4 and 6, l = 1, 3) receptor combinations at 3:1:5 ratio.
(§3) Mature female Xenopus laevis (Nasco, WI) were anesthetized in a bath of ice-cold 0.17% Tricain (Ethyl-m-aminobenzoate, Sigma, MO) before decapitation in full accordance with all rules of the Austrian animal protection law (see http://www.ris.bka.gv.at/Dokumente/BgblAuth/BGBLA_2012_I_114/BGBLA_2012_I_114.pdf) and the Austrian animal experiment by-laws (see https://www.ris.bka.gv.at/Dokumente/BgblAuth/BGBLA_2012_II_522/BGBLA_2012_II_522.pdf) which implement the European Directive 2010/63/EU (see http://eur-lex.europa.eu/LexUriServ/LexUriServ.do?uri=OJ:L:2010:276:0033:0079:en:PDF) into the Austrian law (all information accessed on July 27, 2016). The frog’s ovaries were transferred to ND96 medium (96 mM NaCl, 2 mM KCl, 1 mM MgCl2, 5 mM HEPES; pH 7.5). Stage 5–6 oocytes with the follicle cell layer around them were roughly dissected with forceps into packages of 10–15 cells and washed in Ca^2+-free ND96 medium. Cells were then digested with collagenase (type IA, Sigma, NO, 1 mg/mL ND96) at 18 °C shaking at 30 rpm for 30–60 minutes and gently defolliculated with the aid of a glass pipette with appropriate tip diameter and a platinum loop. Defolliculated cells were stored at 18 °C for at least 6 hours in ND96 solution containing penicillin G (10000 IU/100 mL) and streptomycin (10 mg/100 mL) in order to preselect and exclude damaged cells from further treatment. Healthy defolliculated oocytes were injected with an aqueous solution of mRNA. A total of 4.5 ng of mRNA per oocyte was injected with a Nanoject II (Drummond). After injection of mRNA, oocytes were incubated at 18 °C (ND96 + antibiotic) for 2–3 days for αβ receptors and for 3–4 days for αβγ or αβδ receptors before recording. When cells were measured at later time points, oocytes were stored at +4 °C instead of 18 °C.
(§4) For electrophysiological recordings, oocytes were placed on a nylon-grid in a bath of Ca^2+-containing NDE solution medium [96 mM NaCl, 5 mM HEPES-NaOH (pH 7.5), 2 mM KCl, 1 mM MgCl2, 1.8 mM CaCl2].
On the technique in general: Two-electrode voltage clamp holds a large cell at a set potential and records current.

A further assay addresses T2, α1β2 GABAA receptors (Rattus norvegicus, UniProt P62813+P63138).
T2 construct: expressed in transfected cells; host or cells: Xenopus laevis oocytes, mRNA injected
Put plainly: Two electrode voltage clamp in Xenopus laevis oocytes, α1β2.
Text: as §1, §2, §3, §4

The target in a further assay is T3, α1β3 GABAA receptors (Rattus norvegicus, UniProt P62813+P63079).
T3 construct: expressed in transfected cells; host or cells: Xenopus laevis oocytes, mRNA injected
Put plainly: Two electrode voltage clamp in Xenopus laevis oocytes, α1β3.
Text: as §1, §2, §3, §4

A further assay concerns the target T4, α1β1R41N GABAA receptors (Rattus norvegicus, UniProt P15431+P62813, R66N).
T4 construct: expressed in transfected cells; host or cells: Xenopus laevis oocytes, mRNA injected
Put plainly: Two electrode voltage clamp in Xenopus laevis oocytes, mutant α1β1R41N.
Text: as §1, §2, §3, §4

The next assay addresses T5, α1β3N41R GABAA receptors (Rattus norvegicus, UniProt P62813+P63079, N66R).
T5 construct: expressed in transfected cells; host or cells: Xenopus laevis oocytes, mRNA injected
Kind of assay: Two electrode voltage clamp in Xenopus laevis oocytes, mutant α1β3N41R. As to conditions: co-applied with GABA EC3-5, read-out: EC50 values for the mutated receptors.
Text: as §1, §2, §3, §4

The source of these data is article PMC5516028, “Molecular tools for GABAA receptors: High affinity ligands for β1-containing subtypes” (Scientific Reports, 2017).

Usually EC50 stands for the concentration that produces a half-maximal response.

T4 sequence (P62813 28-455): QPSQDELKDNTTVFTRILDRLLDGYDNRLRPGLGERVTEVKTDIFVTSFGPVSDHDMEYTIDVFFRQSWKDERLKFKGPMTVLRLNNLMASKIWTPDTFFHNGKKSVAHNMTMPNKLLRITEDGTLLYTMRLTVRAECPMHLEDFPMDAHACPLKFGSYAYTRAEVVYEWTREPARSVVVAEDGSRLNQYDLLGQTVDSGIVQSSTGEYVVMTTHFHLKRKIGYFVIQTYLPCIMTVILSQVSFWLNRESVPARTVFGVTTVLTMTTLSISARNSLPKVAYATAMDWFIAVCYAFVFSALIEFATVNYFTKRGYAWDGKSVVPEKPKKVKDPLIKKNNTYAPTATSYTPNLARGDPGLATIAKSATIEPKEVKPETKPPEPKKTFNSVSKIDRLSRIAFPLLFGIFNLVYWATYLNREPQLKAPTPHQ
T4 sequence (P15431 26-474 R66N): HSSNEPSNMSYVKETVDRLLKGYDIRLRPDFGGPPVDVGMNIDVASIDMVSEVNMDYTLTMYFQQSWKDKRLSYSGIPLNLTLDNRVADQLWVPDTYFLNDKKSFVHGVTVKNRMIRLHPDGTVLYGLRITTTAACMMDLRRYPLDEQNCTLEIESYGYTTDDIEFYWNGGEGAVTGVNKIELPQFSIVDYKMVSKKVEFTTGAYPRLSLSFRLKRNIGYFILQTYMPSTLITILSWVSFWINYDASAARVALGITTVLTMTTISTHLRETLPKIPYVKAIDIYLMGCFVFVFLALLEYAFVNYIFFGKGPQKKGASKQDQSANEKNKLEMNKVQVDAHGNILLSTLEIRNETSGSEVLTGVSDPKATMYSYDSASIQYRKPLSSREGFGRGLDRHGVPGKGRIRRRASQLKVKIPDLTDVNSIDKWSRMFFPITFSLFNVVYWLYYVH
T2 sequence (P62813 28-455): as the sequence (P62813 28-455) above
T2 sequence (P63138 25-474 limits assumed): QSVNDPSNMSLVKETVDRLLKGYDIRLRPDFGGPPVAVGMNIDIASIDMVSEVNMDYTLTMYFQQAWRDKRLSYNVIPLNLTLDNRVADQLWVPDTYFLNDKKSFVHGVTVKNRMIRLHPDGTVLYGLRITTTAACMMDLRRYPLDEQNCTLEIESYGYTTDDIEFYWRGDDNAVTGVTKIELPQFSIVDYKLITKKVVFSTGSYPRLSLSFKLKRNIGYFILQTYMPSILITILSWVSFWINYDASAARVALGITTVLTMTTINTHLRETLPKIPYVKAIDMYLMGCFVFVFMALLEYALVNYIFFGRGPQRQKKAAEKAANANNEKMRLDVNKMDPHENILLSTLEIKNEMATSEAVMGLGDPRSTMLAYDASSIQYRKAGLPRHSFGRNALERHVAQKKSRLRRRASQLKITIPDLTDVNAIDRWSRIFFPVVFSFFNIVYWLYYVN
T1 sequence (P62813 28-455): as the sequence (P62813 28-455) above
T1 sequence (P15431 26-474): as the sequence (P15431 26-474 R66N) above, with N41R counted along it
T3 sequence (P62813 28-455): as the sequence (P62813 28-455) above
T3 sequence (P63079 26-473): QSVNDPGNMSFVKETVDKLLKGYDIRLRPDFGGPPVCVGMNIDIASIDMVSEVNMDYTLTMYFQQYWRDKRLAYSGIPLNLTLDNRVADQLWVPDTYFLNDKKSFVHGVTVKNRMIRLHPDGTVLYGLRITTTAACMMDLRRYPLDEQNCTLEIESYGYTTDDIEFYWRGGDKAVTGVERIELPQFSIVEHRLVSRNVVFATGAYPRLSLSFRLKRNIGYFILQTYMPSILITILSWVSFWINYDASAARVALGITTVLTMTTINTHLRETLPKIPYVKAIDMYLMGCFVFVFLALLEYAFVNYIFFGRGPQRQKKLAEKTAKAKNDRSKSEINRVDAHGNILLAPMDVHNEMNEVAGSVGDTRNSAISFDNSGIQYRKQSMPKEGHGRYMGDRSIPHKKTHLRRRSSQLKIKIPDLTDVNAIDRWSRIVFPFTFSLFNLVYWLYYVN
T5 sequence (P62813 28-455): as the sequence (P62813 28-455) above
T5 sequence (P63079 26-473 N66R): as the sequence (P63079 26-473) above, with N41R counted along it

For the molecule `COc1ccc(-n2nc3c4cc(Cl)ccc4[nH]cc-3c2=O)cc1` [Compound 1, 8-Chloro-2-(4-methoxyphenyl)-2H-pyrazolo[4,3-c]quinolin-3(5H)-one], the activity at 0.001 µM at α1β1 GABAA receptors (read-out: efficacy, % of control current (GABA EC3-5 = 100%), α1β1, 1 nM) is 102 ± 1.7%; on α1β2 GABAA receptors (read-out: efficacy, % of control current (GABA EC3-5 = 100%), α1β2, 1 nM) it was 100%. At α1β1 GABAA receptors (read-out: efficacy, % of control current (GABA EC3-5 = 100%), α1β1, 3 nM), the activity at 0.003 µM is 100.5 ± 0.5%. Also, the activity at 0.03 µM at α1β1 GABAA receptors (read-out: efficacy, % of control current (GABA EC3-5 = 100%), α1β1, 30 nM) was determined as 138 ± 13.3%. On α1β1 GABAA receptors (read-out: efficacy, % of control current (GABA EC3-5 = 100%), α1β1, 300 nM), the activity at 0.3 µM is 292 ± 24.5%. In addition, the activity at 30 µM at α1β1 GABAA receptors (read-out: efficacy, % of control current (GABA EC3-5 = 100%), α1β1, 30 µM) turned out to be 174 ± 34.2%. Also, the “Hill slope (nH)” value on α1β1 GABAA receptors (α1β1) came out at 1.3±0.4; on α1β2 GABAA receptors (α1β2) it was 1.1±0.3; at α1β3 GABAA receptors (α1β3), 1.5±0.5. The EC50 on α1β1 GABAA receptors (α1β1 (α1+/β1− interface), read-out: EC50) was found to be 130 nM; at α1β2 GABAA receptors, 1150 nM; on α1β3 GABAA receptors (α1β3, co-applied with GABA EC3-5, read-out: EC50) it was 1840 nM; at α1β1R41N GABAA receptors (co-applied with GABA EC3-5), 800 nM; at α1β3N41R GABAA receptors, 980 nM. Besides, the activity at 10 µM on α1β2 GABAA receptors (read-out: efficacy, % of control current (GABA EC3-5 = 100%), α1β2, 10 µM) is 644 ± 57%. Also, the activity at 0.01 µM at α1β3 GABAA receptors (read-out: efficacy, % of control current (GABA EC3-5 = 100%), α1β3, 10 nM) stood at 106 ± 1.6%. Further, on α1β3 GABAA receptors (read-out: efficacy, % of control current (GABA EC3-5 = 100%), α1β3, 3 µM), the activity at 3 µM turned out to be 839 ± 105%. The current as % of control at 0.1 µM at α1β1R41N GABAA receptors (100nM, read-out: % of control current at EC3-5) is 80 ± 10%. In addition, at α1β1R41N GABAA receptors (300nM, read-out: % of control current at EC3-5), the current as % of control at 0.3 µM was found to be 100 ± 10%. In addition, the current as % of control at 1 µM on α1β1R41N GABAA receptors (1μM, read-out: % of control current at EC3-5) stood at 140 ± 16%. Also, the current as % of control at 3 µM at α1β1R41N GABAA receptors (3µM, read-out: % of control current at EC3-5) amounted to 195 ± 20%. Also, the current as % of control at 10 µM on α1β1R41N GABAA receptors (10μM, read-out: % of control current at EC3-5) worked out at 205 ± 20%. At α1β1R41N GABAA receptors (30μM, read-out: % of control current at EC3-5), the current as % of control at 30 µM was found to be 150 ± 10%.
